Key:
mammalian cells = details: cell culture studies; cited from earlier work
[1] = system: piglets weaned at 28 days (control of E. coli infection); assay: Pig trial 1: weight gain and feed intake of weaned piglets; assay type: in vivo, pigs
Description: A trial was conducted to determine the potential impact of the compositions of the invention for controlling E. coli infection and improving animal health.
Piglets were weaned at 28 days of age with an average weight of 8.6±0.98 kg. At weaning (i.e. no longer suckling), litters were homogenized to a maximum of 14 pigs and assigned to either a control group (no additional feed component), to a first test group to which the composition of the invention was administered, and to a second test group to which zinc oxide was administered. Pigs were fed starter diets up until day 14 of the trial when the trial completed.
Group weight and feed intake was recorded at day 0, 7 and 14 of the experiment.
The composition of the invention comprised: 10 mg LPO and 8 mg KI and excipients. The composition was formulated as a powder. The composition was administered once daily with feed for 14 days. […] Zinc oxide was administered to the second test group at a concentration of 3000 ppm i.e. 3 g/kg of feed.

[2] = system: pigs at weaning (scour/diarrhea); assay: Pig trial 2: 240 weaned pigs, weight, health and cleanliness scores; assay type: in vivo
Description: A further study involving 240 pigs was carried out with a higher dose of lactoperoxidase and potassium iodide. The pigs were weighed and allocated to the trail at weaning (approximately 28 days of age).
The groups were homogenized with respect to group total weight and gender profile, and each group was divided into pens, with 5 pigs per pen. […] The pigs were weighed individually at the start of the study on day 7 and on day 14. Pigs were assessed each morning for general health, faeces was examined—to check for scour/diarrhea, and pigs per give a cleanliness score

[3] = Lactoperoxidase ABTS activity (UV-vis); assay type: biochemical; details: 1000 units = amount of enzyme that oxidises 1 mmol of ABTS in 5 minutes at pH 6.0 and 35° C.
Description: Lactoperoxidase was isolated from bovine milk. The lactoperoxidase activity (U/mg) was greater than 1000 units ABTS activity (determined using UV-vis). 1000 units ABTS activity (U): amount of enzyme that oxidises 1 mmol of ABTS in 5 minutes at pH 6.0 and 35° C. ABTS: 2,2′-azinobis-(3-ethyl benzthiazoline-6-sulphonic acid).

**Q.** With `OO` [hydrogen peroxide] as the molecule, how does the cytotoxic concentrations (mammalian cells) read?
**A.** 0.05 to 0.58 mmol/L

**Q.** Which results are given for `[O]=[Zn]` [zinc oxide]?
**A.** Average body weight ([1]; Day 0 (baseline at weaning)): 8.5 kg; Average body weight ([1]; Day 7, Test 1: 10 mg LPO and 8 mg KI daily, Test 2: zinc oxide 3000 ppm in feed): 10.1 kg; Average body weight ([1]; Day 14, Test 1: 10 mg LPO and 8 mg KI daily, Test 2: zinc oxide 3000 ppm in feed): 13.7 kg; Average daily gain day 14 ([1]; piglets weaned at 28 days, Test 1: 10 mg LPO and 8 mg KI powder once daily with feed for 14 days, Test 2: zinc oxide 3000 ppm in feed): 369 g/day; Average daily feed intake day 14 ([1]; piglets weaned at 28 days, Test 1: 10 mg LPO and 8 mg KI powder once daily, Test 2: zinc oxide 3000 ppm in feed): 455 g/day; pig weight at the end of the 14 days ([2]; PC: 3100 ppm ZnO diet, test: 20 mg LPO and 20 mg KI per day, NC diet approximately 0.8 kg less than PC): heaviest; cleanliness score ([2]; score 1 (clean) to 4 (heavily contaminated with faecal material), 14 day study): lowest cleanliness score

**Q.** Which “lactoperoxidase activity (units ABTS activity)” value [3] does the source give for Lactoperoxidase here?
**A.** greater than 1000 U/mg

Source: patent publication US12311014B1, “Composition and use thereof for the treatment of equine gastric ulcer syndrome” (priority 2024, dated 2025)
